Laboratory results as given in PubChem BioAssay AID1963825 (Molecular Pharmacology Branch, DTP, NCI, 2024).

Test: Anticancer human tumor 997537-175-T-J1-PDC patient-derived colon adenocarcinoma cell line growth inhibition [POLQ]
Conditions: 997537-175-T-J1-PDC complex spheroid viability, combination with POLQ inhibitors; for IC50: curve of first compound; for viability, T/C: stronger effect = lower value; active = viability on the fitted dose curve at most 10% of control; inactive = the rest
Outline: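 Growth inhibition in 3D: complex spheroids (tumor PDC, HUVEC, MSC) treated with POLQ inhibitor combinations; where Cmax unknown, highest tested concentration 10 microM, except SN-38 at 1 microM.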

[1] = second compound 0.0316 µM, first compound 0.0316 µM
[2] = second compound 0.0316 µM, first compound 0.1 µM
[3] = second compound 0.0316 µM, first compound 0.316 µM
[4] = second compound 0.0316 µM, first compound 1 µM
[5] = second compound 0.0316 µM, first compound 3.16 µM
[6] = second compound 0.0316 µM, first compound 10 µM
[7] = second compound 0.1 µM, first compound 0.0316 µM
[8] = second compound 0.1 µM, first compound 0.1 µM
[9] = second compound 0.1 µM, first compound 0.316 µM
[10] = second compound 0.1 µM, first compound 1 µM
[11] = second compound 0.1 µM, first compound 3.16 µM
[12] = second compound 0.1 µM, first compound 10 µM
[13] = second compound 0.316 µM, first compound 0.0316 µM
[14] = second compound 0.316 µM, first compound 0.1 µM
[15] = second compound 0.316 µM, first compound 0.316 µM
[16] = second compound 0.316 µM, first compound 1 µM
[17] = second compound 0.316 µM, first compound 3.16 µM
[18] = second compound 0.316 µM, first compound 10 µM
[19] = second compound 1 µM, first compound 0.0316 µM
[20] = second compound 1 µM, first compound 0.1 µM
[21] = second compound 1 µM, first compound 0.316 µM
[22] = second compound 1 µM, first compound 1 µM
[23] = second compound 1 µM, first compound 3.16 µM
[24] = second compound 1 µM, first compound 10 µM
[25] = second compound 3.16 µM, first compound 0.0316 µM
[26] = second compound 3.16 µM, first compound 0.1 µM
[27] = second compound 3.16 µM, first compound 0.316 µM
[28] = second compound 3.16 µM, first compound 1 µM
[29] = second compound 3.16 µM, first compound 3.16 µM
[30] = second compound 3.16 µM, first compound 10 µM
[31] = second compound 10 µM, first compound 0.0316 µM
[32] = second compound 10 µM, first compound 0.1 µM
[33] = second compound 10 µM, first compound 0.316 µM
[34] = second compound 10 µM, first compound 1 µM
[35] = second compound 10 µM, first compound 3.16 µM
[36] = second compound 10 µM, first compound 10 µM
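Note: luminescence signal used as a surrogate for viable cells; spheroids exposed to drugs for seven days before readout.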

CCCS(=O)(=O)Nc1ccc(F)c(C(=O)c2c[nH]c3ncc(-c4ccc(Cl)cc4)cc23)c1F + COC1C(OC(N)=O)C(O)C(Oc2ccc3c(O)c(NC(=O)c4ccc(O)c(CC=C(C)C)c4)c(=O)oc3c2C)OC1(C)C
4.78 µM: IC50 (second compound 10 µM)
7.59 µM: IC50 (second compound 0.1 µM)
inactive: viability, T/C [1] 93.4% | viability, T/C [2] 96% | viability, T/C [3] 87.1% | viability, T/C [4] 84.8% | viability, T/C [5] 71.5% | viability, T/C [6] 30.6% | viability, T/C [7] 102% | viability, T/C [8] 92.6% | viability, T/C [9] 84.9% | viability, T/C [10] 78% | viability, T/C [11] 77% | viability, T/C [12] 41.2% | viability, T/C [13] 82.8% | viability, T/C [14] 91.6% | viability, T/C [15] 77.8% | viability, T/C [16] 84.1% | viability, T/C [17] 75% | viability, T/C [18] 36.2% | viability, T/C [19] 86.4% | viability, T/C [20] 79.5% | viability, T/C [21] 73.2% | viability, T/C [22] 75.2% | viability, T/C [23] 72.7% | viability, T/C [24] 21.7% | viability, T/C [25] 95.6% | viability, T/C [26] 78.9% | viability, T/C [27] 77.3% | viability, T/C [28] 73.5% | viability, T/C [29] 78% | viability, T/C [30] 30.1% | viability, T/C [31] 81.4% | viability, T/C [32] 84% | viability, T/C [33] 90.8% | viability, T/C [34] 85.6% | viability, T/C [35] 63.9% | viability, T/C [36] 25.3%
5.26 µM: IC50 (second compound 1 µM)
6.66 µM: IC50 (second compound 0.316 µM)
6.2 µM: IC50 (second compound 3.16 µM)
5.71 µM: IC50 (second compound 0.0316 µM)

CCc1cc2c(N3CCc4c(cc(Cn5ccnc5)cc4-c4cn(C)nc4C(F)(F)F)C3=O)cc(C)nc2c(OC)n1 + Cc1cccc(N(C)C(=O)C2C(O)CCN2c2nc(C)cc(C(F)(F)F)c2C#N)c1
> 10 µM: IC50 (second compound 0.0316 µM) | IC50 (second compound 0.1 µM) | IC50 (second compound 0.316 µM) | IC50 (second compound 1 µM) | IC50 (second compound 3.16 µM) | IC50 (second compound 10 µM)
inactive: viability, T/C [1] 109% | viability, T/C [2] 113% | viability, T/C [3] 97% | viability, T/C [4] 82.8% | viability, T/C [5] 87.1% | viability, T/C [6] 52.4% | viability, T/C [7] 108% | viability, T/C [8] 105% | viability, T/C [9] 84.1% | viability, T/C [10] 90.6% | viability, T/C [11] 75.2% | viability, T/C [12] 74.6% | viability, T/C [13] 83.5% | viability, T/C [14] 103% | viability, T/C [15] 82.6% | viability, T/C [16] 84.1% | viability, T/C [17] 82.9% | viability, T/C [18] 60.9% | viability, T/C [19] 91.2% | viability, T/C [20] 91.7% | viability, T/C [21] 85.9% | viability, T/C [22] 86.9% | viability, T/C [23] 111% | viability, T/C [24] 63.3% | viability, T/C [25] 97.1% | viability, T/C [26] 115% | viability, T/C [27] 92.2% | viability, T/C [28] 82.7% | viability, T/C [29] 61.6% | viability, T/C [30] 59.5% | viability, T/C [31] 102% | viability, T/C [32] 91.8% | viability, T/C [33] 105% | viability, T/C [34] 77.2% | viability, T/C [35] 74% | viability, T/C [36] 53.6%
